Source: patent US20050080054A1, “Treating androgen decline in aging male (ADAM)-associated conditions with SARMS” (priority 2002, published 2005)

Experiments:
Type in all cases: in vivo, rat
[1] = test system: female rats after ovariectomy; assay: Bone mineral content (DEXA) in female rats after ovariectomy
Experimental: One hundred ten female rats were assigned to one of eleven treatment groups. Groups 1-8 were ovariectomized on day one of the study. Groups 9-11 were intact animals. Groups 1-6 received Compound VI by daily subcutaneous injection at doses of 0.1, 0.3, 0.5, 0.75, 1.0, and 3 mg/day, respectively. Groups 7 and 11 received dihydrotestosterone (DHT) at a dose of 1 mg/day. Groups 8 and 9 were ovariectomized and intact control groups, respectively. Group 10 received Compound VI at a dose of 1.0 mg/day. All animals were treated for 120 days. Bone mineral content (BMC) was determined using dual energy x-ray absorptiometry (DEXA) on days 1, 30, 60, 90, and 120.

[2] = test system: androgen-responsive tissues (prostate, seminal vesicles, levator ani muscle); assay: Dose response of androgenic and anabolic activities (Emax, ED50) compared to TP; conditions: for Emax (% of Intact Control): doses 0.1-1.0 mg/day; for Relative Afficacy / Relative Potency: relative to TP
Experimental: FIG. 6: Dose response Curves. Rats were left untreated, or treated with 0.1, 0.3, 0.5, 0.75 and 1.0 mg/day Compound VI, Compound VII or testosterone propionate (TP), and the weight of androgen-responsive tissues (prostate—FIG. 6A, semimal vesicles—FIG. 6B and levator ani muscle—FIG. 6C) was determined. The results are plotted as percentage of the intact control.
(§1) Compound VI and Compound VII were synthesized and characterized in the laboratory of Dr. Duane Miller at the University of Tennessee, Memphis, Tenn. Male Sprague-Dawley rats were purchased from Harlan Biosciences (Indianapolis, Ind.). The animals were maintained on a 12-h cycle of light and dark with food and water available ad libitum. All animal studies were reviewed and approved by the Animal Care and Use Committee of The Ohio State University, and conformed to the Principles of Laboratory Animal Care (NIH publication #85-23, revised 1985). Immature male Sprague-Dawley rats weighing 187 to 214 g were randomly distributed into 9 groups of 5 animals. One day before the initiation of drug treatment, groups 4 through 6 and groups 7 through 9 received unilateral or bilateral orchidectomy, respectively, via a midline scrotal incision. […] All drugs given to animals were freshly prepared as solutions in polyethylene glycol 300 (PEG 300). Groups 4 and 7 received treatment with vehicle alone (i.e., PEG 300). Animals in groups 3, 6, and 9 received testosterone propionate (TP, 0.5 mg/day) via implantation of subdermal osmotic pumps (Model 2002, Durect Corporation, Palo Alto, Calif.). Animals in groups 2, 5, and 8 received Compound VI or Compound VII (0.5 mg/day) via implantation of subdermal osmotic pumps. After 14 days of drug treatment, rats were weighed, anesthetized, and sacrificed. Blood samples were collected by venipuncture of the abdominal aorta. Plasma samples were analyzed for testosterone, FSH, LH and osteocalcin. Testosterone concentrations were measured by AniLytics Inc. (Gaithersburg, Md.). FSH and LH levels were measured by the National Hormone and Peptide Program (Dr. A F Parlow, UCLA, CA). Plasma osteocalcin levels were determined using a commercially available rat osteocalcin EIA kit from Biomedical Technologies Inc. (Stoughton, Mass.). The ventral prostates, seminal vesicles, and levator ani muscle were removed and weighed. Osmotic pumps were also removed from animals to check for correct pump operation. The weights of all organs were normalized to body weight, and analyzed for any statistically significant differences between groups using single-factor ANOVA with the alpha value set a priori at p<0.05. The weights of prostates and seminal vesicles were used as indices for evaluation of androgenic activity, and the levator ani muscle weight was used to evaluate the anabolic activity. Statistical analyses of parameters from complete blood count or serum chemical profiling, wherever applicable, were performed by single-factor ANOVA with the alpha value set a priori at p<0.05.

[3] = Plasma testosterone levels in male rats of varying hormonal status; conditions: 0.5 mg/day; for Plasma testosterone levels: osmotic pump, 14 days, n = 5
Excerpt: as §1

[4] = Plasma FSH levels in male rats of varying hormonal status; conditions: 0.5 mg/day; for Plasma FSH levels: 14 days, n = 5
Excerpt: as §1

[5] = Plasma LH levels in male rats of varying hormonal status; conditions: 0.5 mg/day; for Plasma LH levels: 14 days, n = 5
Excerpt: as §1

[6] = Plasma osteocalcin levels in male rats of varying hormonal status; conditions: 0.5 mg/day; for Plasma osteocalcin levels: 14 days, n = 5
Excerpt: as §1

[7] = test system: androgen-responsive tissues (prostate, seminal vesicles, levator ani muscle); assay: Androgenic and anabolic activity: weight of androgen-responsive tissues in intact, hemi-orchidectomized and castrated rats; conditions: 0.5 mg/day, 14 days, n = 5
Experimental: FIG. 3: Androgenic and Anabolic activity of Compound VI and Compound VII in rats. Male rats with normal testicular function (no surgical manipulation) were left untreated (Intact), treated with compound VI (0.5 mg/day), compound VII (0.5 mg/day) or testosterone proprionate (TP, 0.5 mg/day), and the weight of androgen-responsive tissues (prostate—FIG. 3A, semimal vesicles—FIG. 3B, and levator ani muscle—FIG. 3C) was determined.
(§2) FIG. 4: Androgenic and Anabolic activity of Compound VI and Compound VII in rats. Male rats received unilateral orchidectomy (Hemi-orchidectomized) and were left untreated (Intact), treated with vehicle alone (PEG 300), Compound VI (0.5 mg/day), Compound VII (0.5 mg/day), or testosterone proprionate (TP, 0.5 mg/day), and the weight of androgen-responsive tissues (prostate—FIG. 4A, semimal vesicles—FIG. 4B, and levator ani muscle—FIG. 4C) was determined.
as §2, with “5:” for “4:”, “bilateral” for “unilateral”, “(Castrated)” for “(Hemi-orchidectomized)”, “5A,” for “4A,”, “5B,” for “4B,”, “5C)” for “4C)”
as §1

[8] = test system: myosin heavy chain (MHC) IIb mRNA; assay: Myosin heavy chain (MHC) IIb mRNA expression in masseter muscle by RT-PCR; conditions: masseter muscle of intact female rats; untreated control = 100%
Excerpt: MHC is the predominant protein in skeletal muscle encoded by a multigene family expressed in a tissue-specific and developmentally regulated manner [Adams et al 1999]. In steady state, mRNA expression usually parallels the pattern of MHC protein expression. Because transcription of MHC mRNA occurs in advance of MHC protein translation, and the increased sensitivity of RT-PCR compared to western blotting, rapid changes in mRNA expression can be detected and used to analyze the subtle dynamic effects of muscle anabolism [Wright et al 1997].
The masseter muscle dissected from untreated intact female rats was set as the control level (representing 100%) of MHC IIb expression (FIG. 7A). Intact female rats treated with androgens were evaluated against the untreated controls for the effect of treatment on MHC IIb from masseter.

[9] = TP statement for castrated male rats

C[C@]12CCC(=O)C[C@@H]1CC[C@@H]1[C@@H]2CC[C@]2(C)[C@@H](O)CC[C@@H]12 [DHT, dihydrotestosterone, reference compound]
potency comparison Compound VI versus DHT ([1]; ovariectomized female rat bone model): less potent than Compound VI | increase in BMC ([1]; ovariectomized female rats, 1.0 mg/day, treated for 120 days (group 5; DHT 1 mg/day)): 15%

C[C@](O)(COc1ccc(F)cc1)C(=O)Nc1ccc([N+](=O)[O-])c(C(F)(F)F)c1 [GTx-014]
ED50 ([2]; Anabolic, Levator Ani Muscle): 0.44 ± 0.01 mg/day | Emax (% of Intact Control) ([2]; Anabolic, Levator Ani Muscle): 74.9 ± 0.4 % of Intact Control | Relative Afficacy ([2]; Anabolic, Levator Ani Muscle): 0.72 | Relative Potency ([2]; Anabolic, Levator Ani Muscle): 0.34 | ED50 ([2]; Androgenic, Prostate): 0.42 ± 0.04 mg/day | Emax (% of Intact Control) ([2]; Androgenic, Prostate): 14.5 ± 0.7 % of Intact Control | Relative Afficacy ([2]; Androgenic, Prostate): 0.12 | Relative Potency ([2]; Androgenic, Prostate): 0.31 | ED50 ([2]; Androgenic, Seminal Vesicle): 0.38 ± 0.26 mg/day | Emax (% of Intact Control) ([2]; Androgenic, Seminal Vesicle): 12.7 ± 3.1 % of Intact Control | Relative Afficacy ([2]; Androgenic, Seminal Vesicle): 0.18 | Relative Potency ([2]; Androgenic, Seminal Vesicle): 0.32

CC(=O)Nc1ccc(OC[C@](C)(O)C(=O)Nc2ccc([N+](=O)[O-])c(C(F)(F)F)c2)cc1 [GTx-017]
ED50 ([2]; Anabolic, Levator Ani Muscle): 0.14 ± 0.01 mg/day | Emax (% of Intact Control) ([2]; Anabolic, Levator Ani Muscle): 101.0 ± 1.0 % of Intact Control | Relative Afficacy ([2]; Anabolic, Levator Ani Muscle): 0.97 | Relative Potency ([2]; Anabolic, Levator Ani Muscle): 1.07 | ED50 ([2]; Androgenic, Prostate): 0.43 ± 0.01 mg/day | Emax (% of Intact Control) ([2]; Androgenic, Prostate): 35.2 ± 0.4 % of Intact Control | Relative Afficacy ([2]; Androgenic, Prostate): 0.29 | Relative Potency ([2]; Androgenic, Prostate): 0.30 | ED50 ([2]; Androgenic, Seminal Vesicle): 0.55 ± 0.02 mg/day | Emax (% of Intact Control) ([2]; Androgenic, Seminal Vesicle): 28.5 ± 0.8 % of Intact Control | Relative Afficacy ([2]; Androgenic, Seminal Vesicle): 0.40 | Relative Potency ([2]; Androgenic, Seminal Vesicle): 0.22

CCC(=O)O[C@H]1CC[C@H]2[C@@H]3CCC4=CC(=O)CC[C@]4(C)[C@H]3CC[C@]12C [TP, testosterone propionate, reference compound]
plasma testosterone levels versus controls ([3]; castrated male rats): higher plasma testosterone levels | Plasma testosterone levels ([3]; castrated male rats): 0.258 ± 0.103 ng/mL | Plasma testosterone levels ([3]; hemi-orchidectomized male rats): 2.366 ± 1.232 ng/mL | Plasma testosterone levels ([3]; intact male rats): 1.482 ± 0.416 ng/mL | effect on plasma FSH levels [4, 9]: significant decrease | Plasma FSH levels ([4]; castrated male rats): 58.0 ± 6.9 ng/mL | Plasma FSH levels ([4]; hemi-orchidectomized male rats): 17.2 ± 3.3 ng/mL | Plasma FSH levels ([4]; intact male rats): 11.4 ± 1.7 ng/mL | effect on plasma LH levels [5, 9]: significant decrease | Plasma LH levels ([5]; castrated male rats): 6.702 ± 1.513 ng/mL | Plasma LH levels ([5]; hemi-orchidectomized male rats): 0.124 ± 0.092 ng/mL | Plasma LH levels ([5]; intact male rats): 0.168 ± 0.173 ng/mL | effect on plasma osteocalcin levels ([6]; Compound VI statement for hemi-orchidectomized and castrated animals): no effect | Plasma osteocalcin levels ([6]; castrated male rats): 65.976 ± 11.213 ng/mL | Plasma osteocalcin levels ([6]; hemi-orchidectomized male rats): 77.236 ± 24.418 ng/mL | Plasma osteocalcin levels ([6]; intact male rats): 74.952 ± 15.399 ng/mL | Levator Ani weight ([7]; castrated rats): 87.27 ± 10.25 % of intact control | Prostate weight ([7]; castrated rats): 76.78 ± 10.43 % of intact control | Seminal Vesicle weight ([7]; castrated rats): 63.48 ± 17.05 % of intact control | Levator Ani weight ([7]; hemi-orchidectomized rats): 98.63 ± 10.47 % of intact control | Prostate weight ([7]; hemi-orchidectomized rats): 98.57 ± 7.98 % of intact control | Seminal Vesicle weight ([7]; hemi-orchidectomized rats): 114.19 ± 23.81 % of intact control | Levator Ani weight ([7]; intact rats): 95.61 ± 9.34 % of intact control | Prostate weight ([7]; intact rats): 97.45 ± 10.82 % of intact control | Seminal Vesicle weight ([7]; intact rats): 103.95 ± 13.23 % of intact control | ED50 ([2]; Anabolic, Levator Ani Muscle): 0.15 ± 0.03 mg/day | Emax (% of Intact Control) ([2]; Anabolic, Levator Ani Muscle): 104.2 ± 10.1 % of Intact Control | Relative Afficacy ([2]; Anabolic, Levator Ani Muscle): 1.00 | Relative Potency ([2]; Anabolic, Levator Ani Muscle): 1.00 | ED50 ([2]; Androgenic, Prostate): 0.13 ± 0.03 mg/day | Emax (% of Intact Control) ([2]; Androgenic, Prostate): 120.6 ± 13.4 % of Intact Control | Relative Afficacy ([2]; Androgenic, Prostate): 1.00 | Relative Potency ([2]; Androgenic, Prostate): 1.00 | ED50 ([2]; Androgenic, Seminal Vesicle): 0.12 ± 0.02 mg/day | Emax (% of Intact Control) ([2]; Androgenic, Seminal Vesicle): 70.0 ± 18.8 % of Intact Control | Relative Afficacy ([2]; Androgenic, Seminal Vesicle): 1.00 | Relative Potency ([2]; Androgenic, Seminal Vesicle): 1.00 | MHC type IIb transcription, of untreated control [8]: 133%
